Results: patent US20090111786A1, “Compounds that Prevent Macrophage Apoptosis and Uses Thereof” (priority 2004, published 2009)

Assays:
[1] = tested on: bone marrow-derived macrophages (BMDMs); assay: Macrophage apoptosis on M-CSF withdrawal, sub-G1 DNA content by flow cytometry (PI); type: cell-based, mouse; settings: for increase in cells with sub-G1 DNA content (apoptosis-induced DNA fragmentation): BMDMs pre-incubated with agonist, then cultured without M-CSF
[2] = tested on: LPS-dependent gene expression in macrophages; assay: Microarray analysis of LPS (TLR4)-induced apoptotic gene program; settings: 9cRA alone
Experimental: Microarray analysis: In one embodiment, large numbers of genes were assayed for relative expression levels using one or more of an Affymetrix U74A array and a Codelink Uniset 1 mouse array. Total RNA was isolated and purified using Trizol reagent (Invitrogen Life Technologies, Carlsbad, Calif.) and RNeasy columns (Qiagen, Valencia, Calif.). cRNA was generated from 10 μg total RNA using Superscript (Invitrogen) and the High Yield RNA transcription labeling kit (Enzo Biochem. Inc., Farmingdale, N.Y.). Duplicate samples of fragmented cRNA were hybridized to Affymetrix U74A arrays or Codelink Uniset 1 mouse arrays according to manufacture's instruction. Data was analyzed with Microarray Suite (Affymetrix, Santa Clara, Calif.) and Genespring software (Silicongenetics, Redwood City, Calif.).
An additional series of microarray experiments was performed to evaluate the influence of LXR activation on regulation of the apoptotic program induced by engagement of TLR4 (FIG. 4). Macrophages were incubated with GW3965 or vehicle for 16 h and then treated with LPS for 6 hours.
Macrophages were incubated with the LXR agonist GW3965 (1 μM) or vehicle for 16 h prior to treatment with LPS (100 ng/ml) for 6 h. Total RNA was subjected to microarray analysis using Codelink Mouse Uniset 1 microarrays.

[3] = tested on: WT and LXR−/− macrophages; assay: Cycloheximide-induced macrophage apoptosis, DNA fragmentation; type: cell-based, mouse; settings: for apoptotic process induced by CHX (DNA fragmentation): preincubation 24 h
macrophages = assay: Cycloheximide-induced general caspase activity, fluorimetric; type: cell-based, mouse; settings: macrophages treated with CHX 10 μg/ml, 5 h
[4] = tested on: AIM (Apoptosis Inhibitor expressed by Macrophages) mRNA; assay: AIM mRNA expression by Northern blotting; settings: differentiated macrophages; T1317: at 12 to 24 h of stimulation; EC 10 μM

| Compound | increase in cells with sub-G1 DNA content (apoptosis-induced DNA fragmentation) [1] | AIM mRNA levels [4] | other results |
| --- | --- | --- | --- |
| CC1=C(/C=C/C(C)=C\C=C\C(C)=C\C(=O)O)C(C)(C)CCC1 [9cRA, 9-cis retinoic acid] | little effect | – | effect on the action of the LXR-specific agonists on sub-G1 content ([1]; 9cRA combined with T1317, GW3965 or EC, M-CSF withdrawal): markedly enhanced; inhibitory activity on LPS-dependent gene expression [2]: very little inhibitory activity |
| C[C@@H]1C[C@@H]([C@H](O)CC2CC(=O)NC(=O)C2)C(=O)[C@@H](C)C1 [CHX, cycloheximide] | – | – | DNA fragmentation ([3]; macrophages treated with CHX 10 μg/ml, 6 h): increased; caspase activation (macrophages): increased |
| C[C@H](CC[C@@H]1OC1(C)C)[C@H]1CC[C@H]2[C@@H]3CC=C4C[C@@H](O)CC[C@]4(C)[C@H]3CC[C@]12C [EC, 24(S),25-epoxycholesterol] | attenuated | induced | – |
| O=C(O)Cc1cccc(OCCCN(Cc2cccc(C(F)(F)F)c2Cl)CC(c2ccccc2)c2ccccc2)c1 [GW3965] | attenuated | – | – |
| O=S(=O)(c1ccccc1)N(CC(F)(F)F)c1ccc(C(O)(C(F)(F)F)C(F)(F)F)cc1 [T1317] | attenuated | highly induced | apoptotic process induced by CHX (DNA fragmentation) ([3]; LXR-deficient macrophages): not; apoptotic process induced by CHX (DNA fragmentation) ([3]; […]): attenuated |
